pIC50: −log10 of the molar value.
How the values were obtained:
hAtoh1 = experiment: Induction of hAtoh1 expression in human tumor cell line LS174T (qPCR); assay type: cell-based; settings: LS174T cells, 72 hours, read-out: IC50 (relative expression of hAtoh1)
Method: To evaluate potency of Compounds 1, Isomer 2 and 2, Isomer 2 in their ability to induce hAtoh1 expression, a human tumor cell line is utilized. Endogenous Notch signaling regulation for this cell line is similar to that in the inner ear. Generally, this assay is carried out following principles in Kazanjian et al., Gastroenterology, 2010, 139(3): 918-928 and Supplementary Materials and Methods.
Generally, standard cell culture techniques are used. Low passage human colorectal adenocarcinoma cell line LS174T (ATCC CL-188) maintained in Growth Medium (MEM 10% FBS) is plated 10,000 cells in 100 μl Assay Medium (MEM 1% FBS) per well into 96-well tissue culture treated plates. […]
To quantify the expression of hair cell markers from the […], qPCR probes to detect hAtoh1 or TBP expression in a single two-color multiplex reaction is carried out. […] Relative gene expression between treatment groups is analyzed using the ΔΔCT method and replicate measurements are averaged.
Four separate assays are carried out to obtain IC50 values for each test compound. The IC50 value is determined by fitting concentration response data to “log(antagonist) vs. response (three parameter)” model using GraphPad Prism® software for 12 doses across a concentration range of 4.0E-11 to 1.0E-6 M with 108 total points analyzed for each compound.

[1] = system: hair cell generation markers Atoh1, Pou4f3, Myo7a in organ of Corti explants; experiment: Organ of Corti explant assay, hair cell marker gene expression by qRT-PCR; assay type: cell-based, mice; settings: 1 μM, fold-induction relative to negative control, ± SEM
Method: Generally, organ of Corti organotypic explant culture is carried out on Day 0 according to the method described in Parker et al., Journal of Visualized Experiments, 2010, (36), e1685. Explant culture is carried out for 4-7 days at which point the culture is either prepared for cellular lysis for qRT-PCR, or tissue fixation for immunohistochemistry.
(§1) The bulla and surrounding tissue from the petrous portion of the temporal bone are removed from 1 to 4 day-old postnatal mice (transgenic strain: Atoh1-driven nGFP; Lumpkin E A, et al., Gene Expr Patterns, 2003, (36):389-95) of both sexes. Organs of Corti are dissected in Hanks solution, the spiral ligament is removed and the explants are placed on cover slips coated with poly-L-ornithine (0.01%, Sigma) and laminin ([…], Becton Dickinson) to obtain a preparation with a flat cochlear surface. Each cochlear explant is then placed in a single well of a 24 well plate (Falcon) and cultured in DMEM (Invitrogen) with 5% fetal bovine serum, 5% horse serum, and penicillin-streptomycin (LifeTechnologies). Experimental compounds are added with medium on Day 0 and replaced every 2-3 days. All cultures are maintained in a 5% CO2 humidified incubator at 37° C.
RNA Extraction is carried out by lysing the explant tissue with 350 μl RLT Plus buffer (Qiagen) per well, and total RNA is purified by RNeasy® Plus Mini Kit (Qiagen). cDNA synthesis is carried out with the SuperScript® III First-Strand Synthesis System (LifeTechnologies) using random hexamers. To quantify the induction of hair cell marker expression, qPCR is performed with TaqMan Gene Expression Master Mix (LifeTechnologies, 4369016) and probes to detect genes of interest (e.g. […]; Assay ID Mm00476035_s1, Pou4f3; Assay ID Mm04213795_s1 and Myo7a; Assay ID Mm01274015_m1, LifeTechnologies) and an endogenous control gene, Tbp (Assay ID Mm00446971_m1, LifeTechnologies). Relative gene expression between treatment groups is analyzed using the ΔΔCT method and replicate measurements are averaged. Experiments are carried out in triplicate, at a minimum, and reported as a grand mean.
Data (±SEM) represent the fold-induction in gene expression relative to negative control-treated samples.

[2] = system: outer hair cells in organ of Corti explants; experiment: Organ of Corti explant assay, immuno-staining and count of outer hair cells; assay type: cell-based, mice; settings: explants cultured four days at 1 μM; relative to negative control-treated samples
Method: as §1
Following the explant culture, tissues are fixed in the 24 well plate with 200 μl Cytofix/Cytoperm (BD) for 30 min, rinsed with PBS containing TritonX100 (PBST), and stained with 200 μl of primary antibody solution, consisting of 4% normal donkey serum in PBST with goat anti-GFP (1:2500; AbCAM, ab5450) and rabbit anti-myosinVIIa (1:1000; Proteus Bioscience #25-6790) for 1 hour. […] Blinded cell counts are measured in five separate experiments. […]

Q: With `C[C@H](NC(=O)CCC(F)(F)F)C(=O)NC1C(=O)C=C2N(CCC2(C)C)c2ncccc21` (single isomer, unassigned) [Compound 2, Isomer 2] as the compound, how does the pIC50 (hAtoh1) read?
A: 7.26

Q: What about the “RQ of Atoh1 expression” value [1] of the same compound?
A: 3.10 ± 0.69

Q: And the “RQ of Myo7a expression” value [1]?
A: 1.49 ± 0.22

Q: What about the “RQ of Pou4f3 expression” value [1] of the same compound?
A: 1.65 ± 0.25

Q: And the “Percent Increase in hair cells” value [2]?
A: 17.26 ± 1.2%

Q: With `COc1ccc2c(c1)N1CCC(C)(C)C1=CC(=O)C2NC(=O)[C@H](C)NC(=O)CCC(F)(F)F` (single isomer, unassigned) [Compound 1, Isomer 2] as the compound, how does the pIC50 (hAtoh1) read?
A: 7.78

Q: What about the “RQ of Atoh1 expression” value [1] of the same compound?
A: 3.72 ± 0.54

Q: What about the “RQ of Myo7a expression” value [1] of the same compound?
A: 1.73 ± 0.33

Q: And the “RQ of Pou4f3 expression” value [1]?
A: 2.04 ± 0.35

Q: What about the “Percent Increase in hair cells” value [2] of the same compound?
A: 14.15 ± 1.9%

From US10450317B2, “Notch pathway signaling inhibitor compounds” (Eli Lilly and Company, priority 2015, dated 2019)
